Measured values published in ChEMBL document CHEMBL1201862, “PubChem BioAssay data set” (2004).
Calls of active or inactive are those of the source.

Legend:
Protein RecA = target: T1, Protein RecA (Mycobacterium tuberculosis, UniProt P9WHJ3); assay: Fluorescence Cell-Free Homogeneous Dose Retest to Identify Inhibitors of RecA-Intein Splicing Activity. [Related pubchem assays (depositor defined):AID2097, AID2223, AID489010, AID492950]; assay type: functional
T1 sequence (P9WHJ3 whole entry): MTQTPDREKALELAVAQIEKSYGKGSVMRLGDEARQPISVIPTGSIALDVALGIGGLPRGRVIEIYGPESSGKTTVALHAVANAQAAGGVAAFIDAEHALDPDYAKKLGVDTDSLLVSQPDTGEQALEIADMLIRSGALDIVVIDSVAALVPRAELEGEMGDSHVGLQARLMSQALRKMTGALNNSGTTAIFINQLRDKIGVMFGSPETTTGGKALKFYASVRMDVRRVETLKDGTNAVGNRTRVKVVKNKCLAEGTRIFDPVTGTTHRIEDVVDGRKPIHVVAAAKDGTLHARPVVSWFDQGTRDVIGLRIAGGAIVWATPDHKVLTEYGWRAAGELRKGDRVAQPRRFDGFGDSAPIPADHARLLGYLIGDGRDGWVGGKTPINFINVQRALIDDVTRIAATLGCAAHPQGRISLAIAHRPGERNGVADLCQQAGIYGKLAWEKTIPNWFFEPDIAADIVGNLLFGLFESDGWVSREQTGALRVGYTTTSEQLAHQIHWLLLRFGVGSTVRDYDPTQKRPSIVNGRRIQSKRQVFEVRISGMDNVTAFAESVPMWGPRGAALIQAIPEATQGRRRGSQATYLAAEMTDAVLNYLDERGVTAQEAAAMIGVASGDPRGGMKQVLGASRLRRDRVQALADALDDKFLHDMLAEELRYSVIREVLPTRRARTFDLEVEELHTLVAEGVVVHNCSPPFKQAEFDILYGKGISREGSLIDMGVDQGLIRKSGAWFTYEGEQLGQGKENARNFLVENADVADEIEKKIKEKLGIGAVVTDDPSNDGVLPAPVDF

[1] = target: Sphingosine 1-phosphate receptor 1 (Homo sapiens, UniProt P21453); assay type: functional;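 also: Tango beta-arrestin reporter U2OS cells stimulated with S1P near its EC80; inhibitor potency meaning antagonism of receptor activation by the natural agonist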
Chain of Sphingosine 1-phosphate receptor 1 (P21453 whole entry): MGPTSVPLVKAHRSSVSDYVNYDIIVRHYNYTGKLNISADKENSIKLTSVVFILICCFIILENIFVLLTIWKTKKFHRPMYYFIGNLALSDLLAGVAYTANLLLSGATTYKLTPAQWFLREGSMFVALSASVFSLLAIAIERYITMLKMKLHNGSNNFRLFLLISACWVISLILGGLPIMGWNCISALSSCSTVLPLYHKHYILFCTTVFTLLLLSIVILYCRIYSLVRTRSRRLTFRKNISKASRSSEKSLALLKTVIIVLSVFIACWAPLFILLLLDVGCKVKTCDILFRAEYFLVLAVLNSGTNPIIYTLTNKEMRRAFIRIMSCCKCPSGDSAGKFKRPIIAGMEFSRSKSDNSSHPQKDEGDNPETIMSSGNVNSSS

[2] = viability loss in HEK293 cells – cell-based, plate reader, cherry-picked samples, cytotoxicity control, dose response (AID 743446); assay type: functional
Beta-galactosidase [3] = target: T2, Beta-galactosidase (Escherichia coli, UniProt Q8VNN2); assay type: functional
T2 sequence (Q8VNN2 whole entry): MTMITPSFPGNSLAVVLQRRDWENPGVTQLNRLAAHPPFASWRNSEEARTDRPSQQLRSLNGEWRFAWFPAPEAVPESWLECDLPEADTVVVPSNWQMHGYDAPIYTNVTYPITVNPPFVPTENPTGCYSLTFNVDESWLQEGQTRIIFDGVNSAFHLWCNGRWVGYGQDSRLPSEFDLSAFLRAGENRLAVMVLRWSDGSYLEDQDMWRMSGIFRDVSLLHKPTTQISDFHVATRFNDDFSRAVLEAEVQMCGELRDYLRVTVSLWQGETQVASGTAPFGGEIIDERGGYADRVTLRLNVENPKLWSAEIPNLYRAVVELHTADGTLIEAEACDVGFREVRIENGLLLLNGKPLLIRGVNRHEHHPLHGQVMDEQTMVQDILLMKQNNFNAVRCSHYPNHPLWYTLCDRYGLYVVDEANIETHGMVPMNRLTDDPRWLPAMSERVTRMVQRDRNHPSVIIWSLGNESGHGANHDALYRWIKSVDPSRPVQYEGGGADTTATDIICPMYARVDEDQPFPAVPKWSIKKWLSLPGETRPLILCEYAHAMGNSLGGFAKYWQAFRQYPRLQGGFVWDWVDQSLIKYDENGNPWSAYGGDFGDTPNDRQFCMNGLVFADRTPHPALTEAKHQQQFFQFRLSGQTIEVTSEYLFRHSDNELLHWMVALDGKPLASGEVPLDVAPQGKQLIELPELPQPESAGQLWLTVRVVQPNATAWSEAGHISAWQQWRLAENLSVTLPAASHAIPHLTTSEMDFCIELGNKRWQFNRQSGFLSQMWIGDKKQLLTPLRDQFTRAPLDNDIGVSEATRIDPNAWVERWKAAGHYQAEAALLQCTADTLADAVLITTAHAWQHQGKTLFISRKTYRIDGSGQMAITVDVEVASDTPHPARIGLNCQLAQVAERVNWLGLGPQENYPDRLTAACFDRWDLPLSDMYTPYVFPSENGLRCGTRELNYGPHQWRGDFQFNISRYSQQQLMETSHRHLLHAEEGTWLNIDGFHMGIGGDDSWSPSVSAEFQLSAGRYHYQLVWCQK

HeLa = assay: Cytotoxicity counterscreen assay for transcriptional activators of heat shock protein 70 (Hsp70). [Related pubchem assays: 1203, 1252 ]; assay type: functional; conditions: Homo sapiens;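 also: cells exposed to compound for 16 hours before readout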
Beta-galactosidase [4] = target: T2, Beta-galactosidase; assay: PubChem AID 485352; assay type: functional
[5] = blockade of melanocortin 4 receptor signaling – cell-based, plate reader, cherry pick, counter-screen for LGR2 antagonist project, dose response (AID 743444); assay type: functional;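 also: transfected HEK 293 cells stimulated with alpha-MSH peptide; potency of inhibitors of the alpha-MSH evoked signal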
[6] = target: T3, Replicative DNA helicase DnaB (Mycobacterium tuberculosis, UniProt P9WMR3); assay: DnaB intein splicing inhibitors, dose response, biochemical, cell-free fluorescence (AID 449749); assay type: functional
T3 sequence (P9WMR3 whole entry): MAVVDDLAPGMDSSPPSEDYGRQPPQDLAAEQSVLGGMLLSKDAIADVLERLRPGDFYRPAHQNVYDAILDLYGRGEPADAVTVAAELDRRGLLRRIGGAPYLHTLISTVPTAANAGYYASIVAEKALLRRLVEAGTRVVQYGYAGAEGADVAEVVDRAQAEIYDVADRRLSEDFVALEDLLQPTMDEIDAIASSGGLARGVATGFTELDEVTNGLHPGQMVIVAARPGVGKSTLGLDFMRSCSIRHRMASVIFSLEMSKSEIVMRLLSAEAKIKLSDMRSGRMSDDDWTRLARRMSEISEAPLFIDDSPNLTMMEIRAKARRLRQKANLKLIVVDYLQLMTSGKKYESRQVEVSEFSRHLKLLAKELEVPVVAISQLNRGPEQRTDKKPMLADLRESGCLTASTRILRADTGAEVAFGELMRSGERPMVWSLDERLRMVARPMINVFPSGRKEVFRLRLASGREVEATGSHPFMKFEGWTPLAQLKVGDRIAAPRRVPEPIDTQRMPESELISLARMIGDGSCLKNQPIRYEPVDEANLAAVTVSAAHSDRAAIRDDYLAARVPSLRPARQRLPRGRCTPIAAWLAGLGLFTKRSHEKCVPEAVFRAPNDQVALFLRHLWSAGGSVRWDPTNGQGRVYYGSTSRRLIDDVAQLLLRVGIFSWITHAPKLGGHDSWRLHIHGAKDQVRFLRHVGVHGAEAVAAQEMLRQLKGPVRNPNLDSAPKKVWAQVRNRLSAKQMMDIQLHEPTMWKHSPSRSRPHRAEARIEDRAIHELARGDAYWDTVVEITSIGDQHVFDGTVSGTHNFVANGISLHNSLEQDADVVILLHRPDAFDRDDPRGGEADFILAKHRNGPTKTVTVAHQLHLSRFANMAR

[7] = A549 cell cytotoxicity, dose response, cytotoxicity control, plate reader, cherry-pick, antagonist series (AID 743412); assay type: functional, cell-based
[8] = target: T4, Kappa-type opioid receptor (Homo sapiens, UniProt P41145); assay type: functional
T4 sequence (P41145 whole entry): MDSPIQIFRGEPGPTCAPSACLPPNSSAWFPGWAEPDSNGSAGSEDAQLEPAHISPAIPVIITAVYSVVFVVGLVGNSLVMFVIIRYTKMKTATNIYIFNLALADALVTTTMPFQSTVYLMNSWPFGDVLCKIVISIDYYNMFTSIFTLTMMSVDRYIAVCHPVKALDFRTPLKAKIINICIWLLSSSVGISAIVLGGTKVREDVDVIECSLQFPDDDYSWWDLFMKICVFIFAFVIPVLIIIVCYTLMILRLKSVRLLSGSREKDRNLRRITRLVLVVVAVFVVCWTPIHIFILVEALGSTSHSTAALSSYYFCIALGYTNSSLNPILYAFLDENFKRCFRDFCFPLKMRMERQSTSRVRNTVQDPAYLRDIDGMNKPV

[9] = fluconazole-exposed Candida albicans growth modulators – fluorescence, retest, confirmation (AID 2467); assay type: functional, cell-based
[10] = toxicity toward HepG2 liver cells – cell-based, plate reader, cherry-pick, antagonist series, cytotoxicity control, dose response (AID 743416); assay type: functional
[11] = target: T4, Kappa-type opioid receptor; assay type: functional; remark: listed apart in the source
[12] = reduced cellular PGC1a acetyl-lysine signal – cell-based, cherry-picked samples, dose response (AID 720514); assay type: functional;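 also: potency may reflect raised or lowered acetylation signal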
[13] = target: Sphingosine 1-phosphate receptor 4 (Homo sapiens, UniProt O95977); assay: Fluorescence dose response cell-based high throughput screening assay for antagonists of the Sphingosine 1-Phosphate Receptor 4 (S1P4). [Related pubchem assays: 1524 (Confirmation in triplicates.), 1510 (Primary screen.)]; assay type: functional
Chain of Sphingosine 1-phosphate receptor 4 (O95977 whole entry): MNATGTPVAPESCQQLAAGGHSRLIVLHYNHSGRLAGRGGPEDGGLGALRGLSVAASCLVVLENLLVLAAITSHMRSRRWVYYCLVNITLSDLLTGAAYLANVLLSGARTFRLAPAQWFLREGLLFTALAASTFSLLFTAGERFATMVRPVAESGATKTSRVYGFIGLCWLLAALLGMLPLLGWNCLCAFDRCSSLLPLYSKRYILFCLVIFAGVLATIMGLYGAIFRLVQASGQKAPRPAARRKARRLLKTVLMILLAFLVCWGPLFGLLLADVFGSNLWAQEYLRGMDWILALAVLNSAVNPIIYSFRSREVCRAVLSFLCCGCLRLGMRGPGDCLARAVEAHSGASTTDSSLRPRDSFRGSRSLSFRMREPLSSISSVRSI

[14] = NIH-3T3 fibroblast cytotoxicity, dose response, cytotoxicity control, cell-based, fluorescence, Alamar Blue, secondary assay (AID 2327); assay type: functional;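 also: NIH-3T3 mouse fibroblasts cultured with fluconazole at 8 µg/mL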
BJ = assay: growth inhibition of engineered Ras-driven BJ cells – cell-based, alamar blue fluorescence, cherrypicked samples, dose response (AID 2631); assay type: functional; conditions: Homo sapiens;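 also: confirmatory dose-response assay in RAS-dependent BJ fibroblasts engineered with TERT, LT and ST, with cytotoxicity read by fluorescence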
[15] = blockers of bursicon-stimulated LGR2 cAMP reporter – cell-based, HEK293, CRE-luciferase reporter, cherry pick, set 2, dose response (AID 743343); assay type: functional;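 also: transfected cells were stimulated with diluted bursicon conditioned medium after compound addition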
[16] = target: Heat shock protein HSP 90-alpha (Homo sapiens, UniProt P07900); assay type: functional, organism-based
[17] = target: T5, Type-1 angiotensin II receptor (Homo sapiens, UniProt P30556); assay: antagonism of angiotensin II type 1 receptor – cell-based, uHTS hits, selectivity assay for APJ receptor antagonist project, dose response (AID 463214); assay type: functional;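 also: antagonist potency against angiotensin II stimulated AT1 response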
T5 sequence (P30556 whole entry): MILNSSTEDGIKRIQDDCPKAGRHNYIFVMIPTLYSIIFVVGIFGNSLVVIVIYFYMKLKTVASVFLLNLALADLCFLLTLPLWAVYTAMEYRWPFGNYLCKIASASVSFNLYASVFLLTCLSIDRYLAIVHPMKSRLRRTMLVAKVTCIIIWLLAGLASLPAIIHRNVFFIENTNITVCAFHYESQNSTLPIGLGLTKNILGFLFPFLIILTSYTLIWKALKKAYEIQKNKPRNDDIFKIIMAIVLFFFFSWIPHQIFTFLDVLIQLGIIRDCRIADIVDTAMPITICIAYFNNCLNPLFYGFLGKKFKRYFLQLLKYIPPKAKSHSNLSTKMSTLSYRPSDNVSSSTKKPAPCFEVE

Vero [18] = assay: Vero 76 cell viability after compound exposure – Vero 76 cells, synthesized analogs, cytotoxicity control for West Nile virus antiviral project, SAR follow-up (AID 2414); assay type: functional; conditions: Chlorocebus sabaeus
[19] = A Cell Based Assay for the Identification of Probe candidate Compounds with Anti- Venezuelan Equine Encephalitis virus. [Related pubchem assays: 2409, 2419, 1621, 2238, 2405, 2024, 2065, 2402, 2414, 1635, 1650, 2244 ]; assay type: functional
Vero [20] = assay: Vero cell viability after compound exposure – synthesized analogs, set II, cytotoxicity control for West Nile virus antiviral project, SAR follow-up (AID 2402); assay type: functional; conditions: Chlorocebus sabaeus

Which EC50 (Protein RecA) does the source give for `CC(C)(C)c1ccc(-n2nc(C#N)c(Cl)cc2=O)cc1` here?
The EC50 was 0.989 µM (active).

What about the IC50 [1] of the same compound?
Its IC50 is 9.04 µM (active).

And the AC50 [2]?
The AC50 was 6.44 µM (active).

What about the EC50 (Beta-galactosidase [3]) of the same compound?
Its EC50 is > 31.5 µM (inactive).

What about the CC50 (HeLa) of the same compound?
The CC50 was > 3.67 µM (not active).

What about the EC50 (Beta-galactosidase [4]) of the same compound?
The EC50 was > 40 µM (inactive).

And the AC50 [5]?
Its AC50 is 14.4 µM (active).

What about the AC50 [6] of the same compound?
Its AC50 is 0.746 µM (active).

What about the AC50 [7] of the same compound?
Its AC50 is 2.83 µM (active).

What about the IC50 [8] of the same compound?
The IC50 was 4.02 µM.

What about the EC50 [9] of the same compound?
The EC50 was > 38 µM (not active).

What about the AC50 [10] of the same compound?
The AC50 was 2.81 µM (active).

And the IC50 [11]?
Its IC50 is 3.68 µM (active).

And the AC50 [12]?
The AC50 was 2.85 µM (active).

What about the IC50 [13] of the same compound?
The IC50 was 1.87 µM (active).

And the EC50 [14]?
The EC50 was 5.04 µM (inconclusive).

And the EC50 (BJ)?
The EC50 was 1.13 µM (active).

And the AC50 [15]?
The AC50 was 12 µM (active).

What about the AC50 [16] of the same compound?
The AC50 was 3.8 µM (active).

And the IC50 [17]?
The IC50 was 38.5 µM (not active).

Which CC50 (Vero [18]) does the source give for `Cc1cccc2c(=O)n(-c3ccccc3)c(SCC(=O)Nc3ccc4c(c3)CCC4)nc12` here?
The CC50 was > 133 µM (active).

What about the IC50 [19] of the same compound?
The IC50 was > 133 µM (active).

And the CC50 (Vero [20])?
Its CC50 is > 200 µM (active).
